Reference: patent US20240390340A1 (INCYTE CORPORATION, priority 2023, published 2024)
Read-outs that look alike come from different tables or passages of the source.

How the values were obtained:
KRAS G12V = KRAS G12V (Homo sapiens, UniProt P01116, G12V); assay: GDP-GTP exchange assay (bodipy-GDP/GppNHp, SOS1), KRAS G12V; type: biochemical
Caco-2 cells = assay: Caco2 assay (Papp A-B); type: in vitro ADME; conditions: test compound 50 μM, 120 min, 37° C.
Experimental: Caco-2 cells are grown at 37° C. in an atmosphere of 5% CO2 in DMEM growth medium supplemented with 10% (v/v) fetal bovine serum, 1% (v/v) nonessential amino acids, penicillin (100 U/mL), and streptomycin (100 μg/mL). Confluent cell monolayers are subcultured every 7 days or 4 days for Caco-2 by treatment with 0.05% trypsin containing […]. Caco-2 cells are seeded in 96-well Transwell plates. The seeding density for Caco-2 cells is 14,000 cells/well. DMEM growth medium is replaced every other day after seeding. Cell monolayers are used for transport assays between 22 and 25 days for Caco-2 cells.
Cell culture medium is removed and replaced with HBSS. To measure the TEER, the HBSS is added into the donor compartment (apical side) and receiver compartment (basolateral side). The TEER is measured by using a REMS Autosampler to ensure the integrity of the cell monolayers. Caco-2 cell monolayers with TEER values 300 Ω·cm^2 are used for transport experiments. To determine the Papp in the absorptive direction (A-B), solution of test compound (50 μM) in HBSS is added to the donor compartment (apical side), while HBSS solution with 4% BSA is added to the receiver compartment (basolateral side). The apical volume was 0.075 mL, and the basolateral volume is 0.25 mL. The incubation period is 120 min. at 37° C. in an atmosphere of 5% CO2. At the end of the incubation period, samples from the donor and receiver sides are removed and an equal volume of MeCN is added for protein precipitation. The supernatants are collected after centrifugation (3000 rpm, Allegra X-14R Centrifuge from Beckman Coulter, Indianapolis, IN) for LCMS analysis. The permeability value is determined according to the equation:
[formula] • where the flux rate (F, mass/time) is calculated from the slope of cumulative amounts of compound of interest on the receiver side, SA is the surface area of the cell membrane, VD is the donor volume, and MD is the initial amount of the solution in the donor chamber.
The symbol “+” indicates a Caco-2 value of ≤0.5, “++” indicates a Caco-2 value of >0.5 but ≤1; and “+++” indicates a Caco-2 value of >1. “NA” indicates IC50 not available.

KRAS G12D = KRAS G12D (Homo sapiens, UniProt P01116, G12D); assay: GDP-GTP exchange assay (bodipy-GDP/GppNHp, SOS1), KRAS G12D; type: biochemical
[1] = Table H, column G12V, for compounds isolated as several atropisomers/diastereoisomers the value for the most potent isomer is quoted, read-out: KRAS G12V exchange assay IC50
[2] = Table H, column G12D, for compounds isolated as several atropisomers/diastereoisomers the value for the most potent isomer is quoted, read-out: KRAS G12D exchange assay IC50
[3] = KRAS G12V mutant, value for the most potent isomer quoted for certain compounds, read-out: G12V (KRAS G12V exchange assay IC50)
[4] = bodipy-loaded KRAS G12D 2.5 nM, 4 h pre-incubation, value for the most potent isomer quoted for certain compounds, read-out: G12D (KRAS G12D exchange assay IC50)

Chain of KRAS G12D (P01116 1-188 isoform P01116-2 G12D): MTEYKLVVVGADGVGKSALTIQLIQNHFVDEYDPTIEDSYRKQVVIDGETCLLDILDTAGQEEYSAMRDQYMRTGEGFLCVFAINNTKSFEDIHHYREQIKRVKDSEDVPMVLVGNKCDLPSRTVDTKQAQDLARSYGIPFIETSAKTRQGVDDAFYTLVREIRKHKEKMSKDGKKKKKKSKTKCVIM
Chain of KRAS G12V (P01116 1-188 isoform P01116-2 G12V): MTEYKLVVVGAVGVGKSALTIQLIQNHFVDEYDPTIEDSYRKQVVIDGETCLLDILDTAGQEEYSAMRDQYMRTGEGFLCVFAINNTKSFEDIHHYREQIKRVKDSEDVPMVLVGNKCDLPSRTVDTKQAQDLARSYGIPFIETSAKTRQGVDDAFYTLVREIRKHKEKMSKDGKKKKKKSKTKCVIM

Structure (SMILES)	IC50 (KRAS G12V; [1]) [nM]	Caco-2 (Caco-2 cells)	IC50 (KRAS G12D; [2]) [nM]	IC50 (KRAS G12V; [3]) [nM]	IC50 (KRAS G12D; [4]) [nM]
COc1ncccc1CO[C@H]1C[C@H](c2cc3c(C)nc4c(F)c(-c5cccc(Cl)c5Cl)c(CCC#N)cc4c3n2[C@H]2[C@H]3CN[C@@H]2C3)N(C(=O)C2CC2)C1 [Example 27]	≤ 100	++ (a Caco-2 value of >0.5 but ≤1)	≤ 100		
COc1cc(O[C@H]2C[C@H](c3cc4c([C@@H](C)O)nc5c(F)c(-c6cccc(Cl)c6Cl)c(CCC#N)cc5c4n3[C@H]3[C@H]4CN[C@@H]3C4)N(C(=O)C3CC3)[C@@H]2C)c(F)cn1 [Example 51, 3-(1-((1R,4R,5S)-2-Azabicyclo[2.1.1]hexan-5-yl)-2-((2R,4S,5R)-1-(cyclopropanecarbonyl)-4-((5-fluoro-2-methoxypyridin-4-yl)oxy)-5-methylpyrrolidin-2-yl)-7-(2,3-dichlorophenyl)-6-fluoro-4-((R)-1-hydroxyethyl)-1H-pyrrolo[3,2-c]quinolin-8-yl)propanenitrile]	≤ 100	+ (a Caco-2 value of ≤0.5)	≤ 100		
Cc1nc2c(F)c(-c3cccc(Cl)c3Cl)c(CCC#N)cc2c2c1cc([C@H]1C[C@H](OC3CCC(C#N)C3)CN1C(=O)C1CC1)n2[C@H]1[C@H]2CN[C@@H]1C2 (stereo partly drawn) [Example 24]	≤ 100	+ (a Caco-2 value of ≤0.5)	≤ 100		
Cc1nc2c(F)c(-c3cccc(Cl)c3Cl)c(CCC#N)cc2c2c1cc([C@H]1C[C@H](n3cc(C4(C)CCC4)nn3)CN1C(=O)C1CC1)n2[C@H]1[C@H]2CN[C@@H]1C2 [Example 384]				≤ 100	≤ 100
Cc1nc2c(F)c(-c3cccc(Cl)c3Cl)c(CCC#N)cc2c2c1cc([C@H]1C[C@H](n3cc(-c4ccccc4)cn3)CN1C(=O)C1CC1)n2[C@H]1[C@H]2CN[C@@H]1C2 [Example 354]				100 to 1000	≤ 100
Cc1cccc(C(F)(F)F)c1CO[C@H]1C[C@H](c2cc3c(C)nc4c(F)c(-c5cccc(Cl)c5Cl)c(CCC#N)cc4c3n2[C@H]2[C@H]3CN[C@@H]2C3)N(C(=O)C2CC2)C1 [Example 124]				≤ 100	100 to 1000
Cc1nc2c(F)c(-c3cccc(Cl)c3Cl)c(CCC#N)cc2c2c1cc([C@H]1C[C@H](Oc3cnn(C)c3)CN1C(=O)C1CC1)n2[C@H]1[C@H]2CN[C@@H]1C2 [Example 135]				≤ 100	≤ 100
Cc1nc2c(F)c(-c3cccc(Cl)c3Cl)c(CCC#N)cc2c2c1cc([C@H]1C[C@H](N3C(=O)COC3=O)CN1C(=O)C1CC1)n2[C@H]1[C@H]2CN[C@@H]1C2 [Example 320]				≤ 100	≤ 100
Cc1nc2c(F)c(-c3cccc(Cl)c3Cl)c(CCC#N)cc2c2c1cc([C@H]1C[C@H](Oc3cnn(C(F)F)c3)[C@@H](C)N1C(=O)C1CC1)n2[C@H]1[C@H]2CN[C@@H]1C2 [Example 214]				≤ 100	≤ 100
[2H]C([2H])(O[C@H]1C[C@H](c2cc3c(C)nc4c(F)c(-c5cccc(Cl)c5Cl)c(CCC#N)cc4c3n2[C@H]2[C@H]3CN[C@@H]2C3)N(C(=O)C2CC2)[C@@H]1C)c1nscc1C [Example 242]				≤ 100	≤ 100
Cc1nc2c(F)c(-c3cccc(Cl)c3Cl)c(CCC#N)cc2c2c1cc([C@H]1C[C@H](n3ccc(N)n3)CN1C(=O)C1CC1)n2[C@H]1[C@H]2CN[C@@H]1C2 [Example 319]				≤ 100	≤ 100
Cc1nc2c(F)c(-c3cccc(Cl)c3Cl)c(CCC#N)cc2c2c1cc([C@H]1C[C@H](OC(C)c3ccccn3)CN1C(=O)C1CC1)n2[C@H]1[C@H]2CN[C@@H]1C2 (stereo partly drawn) [Example 226]				≤ 100	≤ 100
[2H]C([2H])(O[C@H]1C[C@H](c2cc3c(C)nc4c(F)c(-c5cccc(Cl)c5Cl)c(CCC#N)cc4c3n2[C@H]2[C@H]3CN[C@@H]2C3)N(C(=O)C2CC2)C1)c1nccs1 [Example 362]				≤ 100	≤ 100
Cc1nc2c(F)c(-c3cccc(Cl)c3Cl)c(CCC#N)cc2c2c1cc([C@H]1C[C@H](OC[C@H]3C[C@@H](C#N)C3)CN1C(=O)C1CC1)n2[C@H]1[C@H]2CN[C@@H]1C2 [Example 403]				≤ 100	≤ 100
Cc1nc2c(F)c(-c3cccc(Cl)c3Cl)c(CCC#N)cc2c2c1cc([C@H]1C[C@H](OCc3c(F)cccc3F)CN1C(=O)c1ccccc1)n2[C@H]1[C@H]2CN[C@@H]1C2 [Example 195]				≤ 100	100 to 1000
Cc1nc2c(F)c(-c3cccc(Cl)c3Cl)c(CCC#N)cc2c2c1cc([C@H]1C[C@H](n3cc(C4CC4)cn3)CN1C(=O)C1CC1)n2[C@H]1[C@H]2CN[C@@H]1C2 [Example 429]				≤ 100	≤ 100
Cc1nc2c(F)c(-c3cccc(Cl)c3Cl)c(CCC#N)cc2c2c1cc([C@H]1C[C@H](Oc3ccnn3C(F)(F)F)CN1C(=O)C1CC1)n2[C@H]1[C@H]2CN[C@@H]1C2 [Example 406]				≤ 100	≤ 100
Cc1nc2c(F)c(-c3cccc(Cl)c3Cl)c(CCC#N)cc2c2c1cc([C@H]1C[C@H](OCc3cncn3C)CN1C(=O)C1CC1)n2[C@H]1[C@H]2CN[C@@H]1C2 [Example 108]				≤ 100	≤ 100
Cc1nc2c(F)c(-c3cccc(Cl)c3Cl)c(CCC#N)cc2c2c1cc([C@H]1C[C@H](n3ccc(C(F)F)n3)CN1C(=O)C1CC1)n2[C@H]1[C@H]2CN[C@@H]1C2 [Example 318]				≤ 100	≤ 100
Cc1nc2c(F)c(-c3cccc(Cl)c3Cl)c(CCC#N)cc2c2c1cc([C@H]1C[C@H](OCc3cnnn3C)CN1C(=O)C1CC1)n2[C@H]1[C@H]2CN[C@@H]1C2 [Example 106]				≤ 100	≤ 100
Cc1cc(-c2nc3c(F)c(-c4cccc(Cl)c4Cl)c(CCC#N)cc3c3c2cc([C@H]2C[C@H](OCc4c(F)cccc4F)CN2C(=O)C2CC2)n3[C@H]2[C@H]3CN[C@@H]2C3)cc(C)n1 [Example 208]				5000 to 10000	5000 to 10000
Cc1nc2c(F)c(-c3cccc(Cl)c3Cl)c(CCC#N)cc2c2c1cc([C@H]1C[C@H](OC(C)c3ccccc3)CN1C(=O)C1CC1)n2[C@H]1[C@H]2CN[C@@H]1C2 (stereo partly drawn) [Example 93]				≤ 100	≤ 100
Cc1nc2c(F)c(-c3cccc(Cl)c3Cl)c(CCC#N)cc2c2c1cc([C@H]1C[C@H](Oc3cnccn3)CN1C(=O)C1CC1)n2[C@H]1[C@H]2CN[C@@H]1C2 [Example 137]				≤ 100	≤ 100
Cc1nc2c(F)c(-c3cccc(Cl)c3Cl)c(CCC#N)cc2c2c1cc([C@H]1C[C@H](OCC3(C#N)CC3)CN1C(=O)C1CC1)n2[C@H]1[C@H]2CN[C@@H]1C2 [Example 338]				≤ 100	≤ 100
Cc1nc2c(F)c(-c3cccc(Cl)c3Cl)c(CCC#N)cc2c2c1cc([C@H]1C[C@H](Oc3cccc(OC(F)(F)F)c3)CN1C(=O)C1CC1)n2[C@H]1[C@H]2CN[C@@H]1C2 [Example 171]				≤ 100	≤ 100
C[C@@H](O)c1nc2c(F)c(-c3cccc(Cl)c3Cl)c(CCC#N)cc2c2c1cc([C@H]1[C@@H](F)[C@H](Oc3ccccn3)CN1C(=O)C1CC1)n2[C@H]1[C@H]2CN[C@@H]1C2 [Example 85]				≤ 100	≤ 100
Cc1nc(O[C@H]2C[C@H](c3cc4c(C)nc5c(F)c(-c6cccc(Cl)c6Cl)c(CCC#N)cc5c4n3[C@H]3[C@H]4CN[C@@H]3C4)N(C(=O)C3CC3)C2)ccc1C#N [Example 306]				≤ 100	≤ 100
Cc1nc2c(F)c(-c3cccc(Cl)c3Cl)c(CCC#N)cc2c2c1cc([C@H]1C[C@H](Oc3ccn(C(F)(F)F)n3)CN1C(=O)C1CC1)n2[C@H]1[C@H]2CN[C@@H]1C2 [Example 357]				≤ 100	≤ 100
Cc1nc2c(F)c(-c3cccc(Cl)c3Cl)c(CCC#N)cc2c2c1cc([C@H]1C[C@H](n3cc(C4(CF)CC4)nn3)CN1C(=O)C1CC1)n2[C@H]1[C@H]2CN[C@@H]1C2 [Example 381]				≤ 100	≤ 100
Cc1nc2c(F)c(-c3cccc(Cl)c3Cl)c(CCC#N)cc2c2c1cc([C@H]1C[C@H](Oc3ncco3)CN1C(=O)C1CC1)n2[C@H]1[C@H]2CN[C@@H]1C2 [Example 188]				5000 to 10000	5000 to 10000
